# Results: patent US12157741B2, “Macrocyclic inhibitors of DYRK1A” (DANA-FARBER CANCER INSTITUTE, INC., priority 2018, dated 2024)
# Where two headings read alike, the source gives them in different places.
# Legend:
# Type in all cases: binding
# [1] = target: various enzymes (Homo sapiens, UniProt O15146); settings: compound 1 uM
# Protocol: (§1) Ambit profiling was conducted in accordance with the manufacturer's instructions.
# [2] = target: various enzymes (Homo sapiens, UniProt O15264); settings: compound 1 uM
# Protocol: as §1
# [3] = target: various enzymes (Homo sapiens, UniProt O60674); settings: compound 1 uM
# Protocol: as §1
# [4] = target: various enzymes (Homo sapiens, UniProt O75914); settings: compound 1 uM
# Protocol: as §1
# [5] = target: various enzymes (Homo sapiens, UniProt O96013); settings: compound 1 uM
# Protocol: as §1
# [6] = target: various enzymes (Homo sapiens, UniProt P10721, D816V)
# Chain of various enzymes (Homo sapiens, UniProt P10721, D816V) (P10721 26-976 D816V): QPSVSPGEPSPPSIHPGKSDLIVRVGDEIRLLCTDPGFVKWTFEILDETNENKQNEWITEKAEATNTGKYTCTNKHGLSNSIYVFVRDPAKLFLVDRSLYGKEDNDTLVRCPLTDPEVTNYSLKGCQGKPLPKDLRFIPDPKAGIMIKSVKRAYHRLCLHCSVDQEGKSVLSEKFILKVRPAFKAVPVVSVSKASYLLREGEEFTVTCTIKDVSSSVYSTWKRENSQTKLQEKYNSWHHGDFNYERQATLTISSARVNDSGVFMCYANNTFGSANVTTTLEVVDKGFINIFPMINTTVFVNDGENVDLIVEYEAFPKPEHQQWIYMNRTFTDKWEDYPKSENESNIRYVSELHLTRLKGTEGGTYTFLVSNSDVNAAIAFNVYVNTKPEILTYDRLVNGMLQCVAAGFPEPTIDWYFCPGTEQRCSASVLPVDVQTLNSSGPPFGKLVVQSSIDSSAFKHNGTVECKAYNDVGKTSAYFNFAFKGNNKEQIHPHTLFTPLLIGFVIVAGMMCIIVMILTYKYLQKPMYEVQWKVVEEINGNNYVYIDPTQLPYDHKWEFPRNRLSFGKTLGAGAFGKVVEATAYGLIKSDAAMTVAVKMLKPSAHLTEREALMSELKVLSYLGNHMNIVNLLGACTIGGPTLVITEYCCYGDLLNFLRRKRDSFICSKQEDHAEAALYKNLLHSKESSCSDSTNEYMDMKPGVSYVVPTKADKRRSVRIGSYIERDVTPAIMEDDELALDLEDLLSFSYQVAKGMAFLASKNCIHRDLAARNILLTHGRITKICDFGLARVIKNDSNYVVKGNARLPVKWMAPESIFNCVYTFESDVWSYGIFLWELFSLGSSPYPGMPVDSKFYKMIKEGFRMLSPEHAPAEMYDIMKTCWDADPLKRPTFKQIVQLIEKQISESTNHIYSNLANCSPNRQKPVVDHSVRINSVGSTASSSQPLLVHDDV
# Protocol: as §1
# [7] = target: various enzymes (Homo sapiens, UniProt P10721, T670I/V559D)
# Chain of various enzymes (Homo sapiens, UniProt P10721, T670I/V559D) (P10721 26-976 V559D/T670I): as the sequence (P10721 26-976 D816V) above, with V534D, T645I, V791D counted along it
# Protocol: as §1
# [8] = target: various enzymes (Homo sapiens, UniProt P15056, V600E)
# Protocol: as §1
# [9] = target: various enzymes (Homo sapiens, UniProt P19525); settings: compound 1 uM
# Protocol: as §1
# [10] = target: various enzymes (Homo sapiens, UniProt P22694); settings: compound 1 uM
# Protocol: as §1
# [11] = target: various enzymes (Homo sapiens, UniProt P24941); settings: compound 1 uM
# Protocol: as §1
# [12] = target: various enzymes (Homo sapiens, UniProt P28482); settings: compound 1 uM
# Protocol: as §1
# [13] = target: T1, various enzymes (Homo sapiens, UniProt P29323); settings: compound 1 uM
# T1 sequence (P29323 19-1055): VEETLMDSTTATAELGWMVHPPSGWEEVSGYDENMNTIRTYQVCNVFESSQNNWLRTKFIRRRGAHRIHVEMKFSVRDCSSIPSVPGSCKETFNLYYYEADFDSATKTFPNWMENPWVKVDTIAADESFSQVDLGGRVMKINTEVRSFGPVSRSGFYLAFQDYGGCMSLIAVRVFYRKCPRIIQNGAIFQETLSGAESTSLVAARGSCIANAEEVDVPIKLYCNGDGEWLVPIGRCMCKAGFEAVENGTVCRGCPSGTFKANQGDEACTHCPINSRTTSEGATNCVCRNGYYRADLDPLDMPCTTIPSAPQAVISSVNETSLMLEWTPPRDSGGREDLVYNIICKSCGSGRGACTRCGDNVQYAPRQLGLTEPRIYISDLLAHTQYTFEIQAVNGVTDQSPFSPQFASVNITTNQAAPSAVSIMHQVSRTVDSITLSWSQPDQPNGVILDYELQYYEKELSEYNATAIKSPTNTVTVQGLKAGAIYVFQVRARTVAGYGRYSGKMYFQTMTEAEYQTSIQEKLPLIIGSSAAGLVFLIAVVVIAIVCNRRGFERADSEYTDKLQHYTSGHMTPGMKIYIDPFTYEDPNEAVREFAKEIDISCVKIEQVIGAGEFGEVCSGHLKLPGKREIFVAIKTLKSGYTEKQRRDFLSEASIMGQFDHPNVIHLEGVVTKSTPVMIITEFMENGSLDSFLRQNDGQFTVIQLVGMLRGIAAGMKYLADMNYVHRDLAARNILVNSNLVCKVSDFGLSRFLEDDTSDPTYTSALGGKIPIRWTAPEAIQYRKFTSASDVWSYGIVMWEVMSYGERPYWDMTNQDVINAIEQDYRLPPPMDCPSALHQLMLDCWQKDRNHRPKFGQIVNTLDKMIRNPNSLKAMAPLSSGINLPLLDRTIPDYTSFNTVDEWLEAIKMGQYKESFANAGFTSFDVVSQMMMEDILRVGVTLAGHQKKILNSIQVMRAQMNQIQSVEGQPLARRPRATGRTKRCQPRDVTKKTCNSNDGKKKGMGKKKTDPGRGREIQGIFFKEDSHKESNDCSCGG
# Protocol: as §1
# [14] = target: various enzymes (Homo sapiens, UniProt P42336, H1047L)
# Protocol: as §1
# [15] = target: various enzymes (Homo sapiens, UniProt P50613); settings: compound 1 uM
# Protocol: as §1
# [16] = target: various enzymes (Homo sapiens, UniProt Q02763); settings: compound 1 uM
# Protocol: as §1
# [17] = target: various enzymes (Homo sapiens, UniProt Q07002); settings: compound 1 uM
# Chain of various enzymes (Homo sapiens, UniProt Q07002) (Q07002 whole entry): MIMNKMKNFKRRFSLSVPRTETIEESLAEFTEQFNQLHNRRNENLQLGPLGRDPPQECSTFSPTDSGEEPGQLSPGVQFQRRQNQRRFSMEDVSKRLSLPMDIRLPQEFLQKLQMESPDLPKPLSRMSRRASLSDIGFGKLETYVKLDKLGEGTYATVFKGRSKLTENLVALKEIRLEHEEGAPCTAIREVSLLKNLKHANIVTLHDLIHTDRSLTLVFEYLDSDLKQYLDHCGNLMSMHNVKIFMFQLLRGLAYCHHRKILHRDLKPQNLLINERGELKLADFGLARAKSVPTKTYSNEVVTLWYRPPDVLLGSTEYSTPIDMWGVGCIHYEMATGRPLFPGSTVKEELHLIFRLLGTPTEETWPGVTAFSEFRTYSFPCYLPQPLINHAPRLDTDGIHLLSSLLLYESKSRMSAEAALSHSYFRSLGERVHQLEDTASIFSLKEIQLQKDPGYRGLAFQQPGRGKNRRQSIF
# Protocol: as §1
# [18] = target: various enzymes (Homo sapiens, UniProt Q12851); settings: compound 1 uM
# Chain of various enzymes (Homo sapiens, UniProt Q12851) (Q12851 whole entry): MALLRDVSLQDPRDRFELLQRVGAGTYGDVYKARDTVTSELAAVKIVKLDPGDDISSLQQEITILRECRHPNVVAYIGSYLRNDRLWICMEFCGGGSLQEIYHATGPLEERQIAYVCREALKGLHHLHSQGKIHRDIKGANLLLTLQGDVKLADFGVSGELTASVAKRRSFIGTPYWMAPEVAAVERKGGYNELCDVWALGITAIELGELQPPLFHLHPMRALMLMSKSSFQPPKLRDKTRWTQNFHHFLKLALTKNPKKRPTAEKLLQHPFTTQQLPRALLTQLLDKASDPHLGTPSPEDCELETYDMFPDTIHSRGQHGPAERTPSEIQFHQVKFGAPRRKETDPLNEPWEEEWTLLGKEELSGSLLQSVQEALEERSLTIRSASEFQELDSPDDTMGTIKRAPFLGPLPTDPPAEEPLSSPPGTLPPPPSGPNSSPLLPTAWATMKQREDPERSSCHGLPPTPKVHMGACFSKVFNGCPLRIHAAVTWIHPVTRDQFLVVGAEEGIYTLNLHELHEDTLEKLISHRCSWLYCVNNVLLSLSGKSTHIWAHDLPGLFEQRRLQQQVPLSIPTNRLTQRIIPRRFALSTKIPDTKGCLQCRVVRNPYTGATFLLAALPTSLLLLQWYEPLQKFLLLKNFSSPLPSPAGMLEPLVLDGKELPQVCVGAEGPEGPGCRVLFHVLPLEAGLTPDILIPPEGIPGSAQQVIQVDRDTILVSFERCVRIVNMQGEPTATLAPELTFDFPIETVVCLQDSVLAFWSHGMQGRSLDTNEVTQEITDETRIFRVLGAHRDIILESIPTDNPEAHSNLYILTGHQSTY
# Protocol: as §1
# [19] = target: various enzymes (Homo sapiens, UniProt Q13546); settings: compound 1 uM
# Chain of various enzymes (Homo sapiens, UniProt Q13546) (Q13546 whole entry): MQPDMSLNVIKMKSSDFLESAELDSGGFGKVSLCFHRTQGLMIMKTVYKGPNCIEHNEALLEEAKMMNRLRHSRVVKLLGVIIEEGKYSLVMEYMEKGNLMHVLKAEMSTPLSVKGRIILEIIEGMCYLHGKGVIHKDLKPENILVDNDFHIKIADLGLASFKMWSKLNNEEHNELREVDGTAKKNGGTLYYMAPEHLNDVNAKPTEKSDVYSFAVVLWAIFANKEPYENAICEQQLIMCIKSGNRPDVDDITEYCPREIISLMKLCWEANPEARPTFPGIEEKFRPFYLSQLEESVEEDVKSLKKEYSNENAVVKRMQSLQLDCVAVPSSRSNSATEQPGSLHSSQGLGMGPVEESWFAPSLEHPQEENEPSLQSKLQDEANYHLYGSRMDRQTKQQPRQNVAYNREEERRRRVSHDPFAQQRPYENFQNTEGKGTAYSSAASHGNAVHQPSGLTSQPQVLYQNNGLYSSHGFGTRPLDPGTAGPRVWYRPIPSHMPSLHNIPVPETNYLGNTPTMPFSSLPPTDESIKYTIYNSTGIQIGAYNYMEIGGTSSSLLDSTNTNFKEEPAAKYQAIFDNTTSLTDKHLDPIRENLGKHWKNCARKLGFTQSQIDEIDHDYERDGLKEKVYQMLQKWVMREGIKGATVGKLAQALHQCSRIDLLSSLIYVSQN
# Protocol: as §1
# [20] = target: various enzymes (Homo sapiens, UniProt Q13554); settings: compound 1 uM
# Chain of various enzymes (Homo sapiens, UniProt Q13554) (Q13554 whole entry): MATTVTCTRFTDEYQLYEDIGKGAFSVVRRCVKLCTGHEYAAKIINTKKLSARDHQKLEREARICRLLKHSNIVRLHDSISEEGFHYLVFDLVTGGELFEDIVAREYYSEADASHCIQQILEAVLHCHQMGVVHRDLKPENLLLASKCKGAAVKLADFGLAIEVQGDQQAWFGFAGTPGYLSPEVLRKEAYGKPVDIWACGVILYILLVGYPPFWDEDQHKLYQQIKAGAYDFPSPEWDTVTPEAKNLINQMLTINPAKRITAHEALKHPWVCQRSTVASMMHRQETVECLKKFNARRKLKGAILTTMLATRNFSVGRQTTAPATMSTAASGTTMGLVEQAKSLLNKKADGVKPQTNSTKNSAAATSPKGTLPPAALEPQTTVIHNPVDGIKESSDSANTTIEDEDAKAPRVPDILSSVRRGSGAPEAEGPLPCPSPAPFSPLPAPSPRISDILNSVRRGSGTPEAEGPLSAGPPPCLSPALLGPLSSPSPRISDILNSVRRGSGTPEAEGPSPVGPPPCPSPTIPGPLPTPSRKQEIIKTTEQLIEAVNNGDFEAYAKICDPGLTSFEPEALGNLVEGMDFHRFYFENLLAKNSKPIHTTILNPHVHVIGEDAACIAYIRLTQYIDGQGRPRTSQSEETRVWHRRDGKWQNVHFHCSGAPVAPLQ
# Protocol: as §1
# [21] = target: various enzymes (Homo sapiens, UniProt Q14289); settings: compound 1 uM
# Protocol: as §1
# [22] = target: various enzymes (Homo sapiens, UniProt Q15375); settings: compound 1 uM
# Protocol: as §1
# [23] = target: various enzymes (Homo sapiens, UniProt Q16620); settings: compound 1 uM
# Protocol: as §1
# [24] = target: various enzymes (Homo sapiens, UniProt Q16832); settings: compound 1 uM
# Protocol: as §1
# [25] = target: various enzymes (Homo sapiens, UniProt Q2M2I8); settings: compound 1 uM
# Protocol: as §1
# [26] = target: various enzymes (Homo sapiens, UniProt Q8N752); settings: compound 1 uM
# Chain of various enzymes (Homo sapiens, UniProt Q8N752) (Q8N752 whole entry): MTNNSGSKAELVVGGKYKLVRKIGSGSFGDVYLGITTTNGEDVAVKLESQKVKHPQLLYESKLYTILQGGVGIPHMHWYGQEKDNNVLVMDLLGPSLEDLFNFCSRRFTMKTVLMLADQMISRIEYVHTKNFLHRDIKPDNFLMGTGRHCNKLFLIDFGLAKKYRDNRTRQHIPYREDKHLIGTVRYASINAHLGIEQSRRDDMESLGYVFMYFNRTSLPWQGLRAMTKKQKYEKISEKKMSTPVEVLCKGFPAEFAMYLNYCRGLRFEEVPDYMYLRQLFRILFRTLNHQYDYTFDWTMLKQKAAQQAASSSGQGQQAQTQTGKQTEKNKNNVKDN
# Protocol: as §1
# [27] = target: various enzymes (Homo sapiens, UniProt Q8TDC3); settings: compound 1 uM
# Protocol: as §1
# [28] = target: various enzymes (Homo sapiens, UniProt Q8WTQ7); settings: compound 1 uM
# Protocol: as §1
# [29] = target: various enzymes (Homo sapiens, UniProt Q9BYP7); settings: compound 1 uM
# Protocol: as §1
# [30] = target: various enzymes (Homo sapiens, UniProt Q9UPE1); settings: compound 1 uM
# Protocol: as §1
# Chain of various enzymes (Homo sapiens, UniProt O15146) (O15146 24-869): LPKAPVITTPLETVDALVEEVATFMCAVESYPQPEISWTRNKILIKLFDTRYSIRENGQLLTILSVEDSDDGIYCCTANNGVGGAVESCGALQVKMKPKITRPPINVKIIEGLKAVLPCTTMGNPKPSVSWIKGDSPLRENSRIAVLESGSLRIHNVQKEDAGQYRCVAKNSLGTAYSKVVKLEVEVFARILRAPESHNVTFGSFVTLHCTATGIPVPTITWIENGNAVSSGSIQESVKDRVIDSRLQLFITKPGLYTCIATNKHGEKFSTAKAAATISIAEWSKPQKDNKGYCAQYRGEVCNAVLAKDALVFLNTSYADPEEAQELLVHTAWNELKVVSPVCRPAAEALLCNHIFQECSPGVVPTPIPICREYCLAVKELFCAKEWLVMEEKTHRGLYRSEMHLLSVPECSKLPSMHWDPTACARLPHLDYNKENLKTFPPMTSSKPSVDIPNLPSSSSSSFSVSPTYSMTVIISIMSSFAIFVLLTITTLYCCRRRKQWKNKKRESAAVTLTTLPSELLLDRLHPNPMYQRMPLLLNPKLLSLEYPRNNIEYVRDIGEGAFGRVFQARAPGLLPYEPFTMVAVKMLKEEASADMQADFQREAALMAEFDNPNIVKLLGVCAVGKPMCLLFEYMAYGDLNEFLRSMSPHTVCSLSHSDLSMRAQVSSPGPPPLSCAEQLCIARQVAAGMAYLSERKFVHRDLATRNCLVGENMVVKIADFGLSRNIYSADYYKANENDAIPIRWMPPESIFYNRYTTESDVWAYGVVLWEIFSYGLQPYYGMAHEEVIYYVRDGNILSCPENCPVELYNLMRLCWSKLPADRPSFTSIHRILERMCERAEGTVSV
structure (smiles),measurement,setting,value
"CC(C)N1Cc2nn(C)cc2-c2cnc3[nH]cc(c3c2)-c2cn(nc2C(F)(F)F)CCCC1=O [Compound 45, (Z)-5-isopropyl-31-methyl-13-(trifluoromethyl)-11H,21H,31H-5-aza-2(3,5)-pyrrolo[2,3-b]pyridina-1(4,1),3(4,3)-dipyrazolacyclononaphan-6-one]",Ambit profiling: MUSK,[1],89
same,Ambit profiling: p38-delta,[2],100
same,Ambit profiling: JAK2(JH1domain-catalytic),[3],4.9
same,Ambit profiling: PAK3,[4],12
same,Ambit profiling: PAK4,[5],76
same,Ambit profiling: KIT(D816V),[6]; compound 1 uM,4.2
same,"Ambit profiling: KIT(V559D, T670I)",[7]; compound 1 uM,8.2
same,Ambit profiling: BRAF(V600E),[8]; compound 1 uM,100
same,Ambit profiling: PRKR,[9],71
same,Ambit profiling: PKAC-beta,[10],54
same,Ambit profiling: CDK2,[11],35
same,Ambit profiling: ERK2,[12],100
same,Ambit profiling: EPHB2,[13],77
same,Ambit profiling: PIK3CA(H1047L),[14]; compound 1 uM,100
same,Ambit profiling: CDK7,[15],13
same,Ambit profiling: TIE2,[16],6.7
same,Ambit profiling: PCTK3,[17],30
same,Ambit profiling: MAP4K2,[18],3.9
same,Ambit profiling: RIPK1,[19],85
same,Ambit profiling: CAMK2B,[20],65
same,Ambit profiling: PYK2,[21],30
same,Ambit profiling: EPHA7,[22],59
same,Ambit profiling: TRKB,[23],0.25
same,Ambit profiling: DDR2,[24],13
same,Ambit profiling: AAK1,[25],40
same,Ambit profiling: CSNK1A1L,[26],100
same,Ambit profiling: BRSK1,[27],100
same,Ambit profiling: GRK7,[28],28
same,Ambit profiling: WNK3,[29],100
same,Ambit profiling: SRPK3,[30],13
"COc1c2c(nn1C)CN(C(C)C)C(=O)CCCn1cc(c(C(F)(F)F)n1)-c1c[nH]c3ncc-2cc13 [Compound 50, (Z)-5-isopropyl-35-methoxy-31-methyl-13-(trifluoromethyl)-11H,21H,31H-5-aza-2(3,5)-pyrrolo[2,3-b]pyridina-1(4,1),3(4,3)-dipyrazolacyclononaphan-6-one]",Ambit profiling: MUSK,[1],90
same,Ambit profiling: p38-delta,[2],99
same,Ambit profiling: JAK2(JH1domain-catalytic),[3],29
same,Ambit profiling: PAK3,[4],24
same,Ambit profiling: PAK4,[5],91
same,Ambit profiling: KIT(D816V),[6],0.35
same,"Ambit profiling: KIT(V559D, T670I)",[7],10
same,Ambit profiling: BRAF(V600E),[8],93
same,Ambit profiling: PRKR,[9],84
same,Ambit profiling: PKAC-beta,[10],45
same,Ambit profiling: CDK2,[11],62
same,Ambit profiling: ERK2,[12],87
same,Ambit profiling: EPHB2,[13],55
same,Ambit profiling: PIK3CA(H1047L),[14],83
same,Ambit profiling: CDK7,[15],6
same,Ambit profiling: TIE2,[16],2.7
same,Ambit profiling: PCTK3,[17],69
same,Ambit profiling: MAP4K2,[18],44
same,Ambit profiling: RIPK1,[19],59
same,Ambit profiling: CAMK2B,[20],46
same,Ambit profiling: PYK2,[21],19
same,Ambit profiling: EPHA7,[22],50
same,Ambit profiling: TRKB,[23],0
same,Ambit profiling: DDR2,[24],32
same,Ambit profiling: AAK1,[25],43
same,Ambit profiling: CSNK1A1L,[26],67
same,Ambit profiling: BRSK1,[27],89
same,Ambit profiling: GRK7,[28],9.7
same,Ambit profiling: WNK3,[29],100
same,Ambit profiling: SRPK3,[30],38
